In patent US7989420B2, “Smooth muscle relaxation” (New York Medical College, priority 2006, dated 2011):

Key:
[1] = humans, factor which limited the doses of ALA, reference (13); cited from earlier work
sGC = target: T1, sGC (Bos taurus, UniProt P16068); test: sGC activity in BPA homogenates (cGMP by ELISA); type: biochemical, bovine; design: Guanylate cyclase activity of homogenates of BPA was measured by enzyme immunoassay; from tissue; host or cells: BPA (pulmonary artery rings, organ cultured) homogenate; conditions: organ culture with 100 μM ALA and/or 100 μM Fe
T1 sequence (P16068 1-619): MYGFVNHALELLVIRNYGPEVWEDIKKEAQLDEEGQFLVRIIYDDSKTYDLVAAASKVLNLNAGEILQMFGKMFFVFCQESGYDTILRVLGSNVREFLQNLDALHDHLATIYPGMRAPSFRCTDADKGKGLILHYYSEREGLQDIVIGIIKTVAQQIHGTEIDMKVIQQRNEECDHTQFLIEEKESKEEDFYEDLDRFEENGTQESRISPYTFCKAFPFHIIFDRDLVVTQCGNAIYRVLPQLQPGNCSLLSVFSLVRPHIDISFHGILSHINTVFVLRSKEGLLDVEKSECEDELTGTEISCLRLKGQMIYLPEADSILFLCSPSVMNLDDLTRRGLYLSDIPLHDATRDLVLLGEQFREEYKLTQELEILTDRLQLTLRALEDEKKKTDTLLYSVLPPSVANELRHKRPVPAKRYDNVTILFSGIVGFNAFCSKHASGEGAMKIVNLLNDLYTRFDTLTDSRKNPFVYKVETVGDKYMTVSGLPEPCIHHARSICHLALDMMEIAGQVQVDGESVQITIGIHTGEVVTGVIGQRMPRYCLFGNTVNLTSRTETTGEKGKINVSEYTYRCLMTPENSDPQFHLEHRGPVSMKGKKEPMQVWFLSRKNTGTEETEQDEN
T1 sequence (P19687 1-691 partner): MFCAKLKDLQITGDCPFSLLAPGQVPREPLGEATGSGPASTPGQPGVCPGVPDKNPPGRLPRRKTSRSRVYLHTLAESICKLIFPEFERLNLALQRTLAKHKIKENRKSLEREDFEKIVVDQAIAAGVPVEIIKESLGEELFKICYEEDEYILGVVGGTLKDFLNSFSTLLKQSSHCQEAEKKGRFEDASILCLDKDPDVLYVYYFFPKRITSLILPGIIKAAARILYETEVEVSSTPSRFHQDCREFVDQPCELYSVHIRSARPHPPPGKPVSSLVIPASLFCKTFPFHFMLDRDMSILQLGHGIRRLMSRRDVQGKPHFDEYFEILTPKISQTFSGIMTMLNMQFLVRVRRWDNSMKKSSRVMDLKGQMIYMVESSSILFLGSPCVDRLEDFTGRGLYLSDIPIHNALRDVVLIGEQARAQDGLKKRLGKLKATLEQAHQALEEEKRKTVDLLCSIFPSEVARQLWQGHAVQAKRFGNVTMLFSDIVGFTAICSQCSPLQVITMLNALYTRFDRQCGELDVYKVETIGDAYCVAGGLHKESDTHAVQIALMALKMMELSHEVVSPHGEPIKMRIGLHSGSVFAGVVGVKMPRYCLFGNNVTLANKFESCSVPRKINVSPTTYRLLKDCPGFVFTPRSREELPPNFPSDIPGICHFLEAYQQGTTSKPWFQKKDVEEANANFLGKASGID
Protocol: Guanylate cyclase activity of homogenates of BPA was measured by enzyme immunoassay of the amounts of cGMP generated. Briefly, BPA were pulverized in liquid nitrogen and homogenized in MOPS buffer 1:3 wt to buffer ratio at 5° C. Reaction mixture (0.2 ml final volume) contained 20 mM MOPS-KOH (pH 7.4), 0.1 mM GTP, 2 mM MgCl2, 0.3 mM of the phosphodiesterase inhibitor 3-Isobutyl-1-methylxanthine, a GTP-regenerating system consisting of 10 mM phosphocreatine and 150 U/ml creatine phosphokinase, and 0.1 ml of homogenate (11, 15), and test agents, as indicated. Assays of sGC activity were initiated by the addition of BPA homogenate. Incubations were conducted for 10 min at 37° C., and they were terminated by the addition of 0.1 ml of preheated 12 mM EDTA. This was followed by boiling the assay mixtures for 10 min and a subsequent addition of 5% trichloroacetic acid. The precipitate was removed by centrifugation and the supernatant was washed three times with water-saturated diethyl ether. Residual ether was removed by incubation at 70° C. for 5 minutes, prior to measurement of cGMP by ELISA (Cayman), as described in the manual supplied by manufacturer of the ELISA kit.

[2] = test system: VASP serine-239 phosphorylation (cGMP-dependent protein kinase activation); test: Western blot of VASP serine-239 phosphorylation in BPA; type: cell-based, bovine; conditions: organ culture with 100 μM ALA
Protocol: Rings from studies on contractile function were snap-frozen in liquid nitrogen, crushed and homogenized in lysis buffer (50 mM Tris-HCl, pH 8.0, 150 mM NaCl, 1 mM EDTA, 1% Triton X-100, 0.5% sodium deoxycholate, 0.1% sodium dodecyl sulfate, 1% of a protease inhibitor cocktail (Sigma) and 1% of a phosphatase inhibitor cocktail (Sigma). The protease inhibitor cocktail included 4-(2-aminoethyl)benzenesulfonyl floride hydrocholride, aprotinin, bestatin hydrochloride, N-(trans-epoxsuccinyl)-L-leucine-4-guanidinobutylamide, leupeptine hemisulfate, pepstatin and the phosphatase inhibitor cocktail included sodium orthovandate, sodium molybdate, sodium tartarate, and imidazole. Protein concentration was determined and 30 μg of protein samples were prepared in electrophoresis sample buffer containing 3% SDS and 3% β-mercaptoethanol and were separated using a 12% gel SDS-PAGE electrophoresis. Membranes were blocked for 1 h in TBST-5% milk and incubated overnight with phospho-VASP antibodies (diluted 1:1000). Membranes were exposed to a secondary horse radish peroxidase linked antibody and visualized with an ECL kit (Amersham). The membranes were subsequently exposed to X-OMAT autoradiography paper (Kodak). Membranes were stripped with TRIS-HCl buffer with 100 mM β-mercaptoethanol at 50° C. for 30 min. Membranes were subsequently washed, blocked and detected for total VASP. Each measurement of phosphorylated VASP was normalized to the total level of VASP, and data are reported as the percent of the levels of phosphorylated VASP seen in control arteries not exposed to agents which modulate the activity of sGC. Expression of sGC was detected with β-sGC subunit antibodies (diluted 1:2000), employing anti-rabbit secondary antibodies, and a protocol where membranes were blocked for 2 h. After analyzing for sGC protein expression, blots were stripped and re-probed for the detection of α-actin protein levels, which were used for normalization of data for statistical analysis based on protein loading.

- BPA homogenate sGC activity (sGC): increase in BPA homogenate sGC activity
SMILES: NCC(=O)CCC(=O)O [ALA, δ-aminolevulinic acid]
- systemic and pulmonary artery pressure [1]: reduction in systemic and pulmonary artery pressure
- VASP serine-239 phosphorylation [2]: increase in VASP phosphorylation
